Source: paper PMC9661473
Where a SMILES comes first, the peptide text is derived from it.

What was measured:
[1] = tested on: 2N3M (DNA, aptamer) TGGTGGTGGTTGTTGTGGTGGTGGTGGT; test: microscale thermophoresis, Hill fit; conditions: 100 mM KCl; 25 mM potassium phosphate, pH 7.05, 25 °C, 200 nM aptamer
[2] = tested on: DNA TA (DNA, aptamer) GGTTGGTGTGGTTGG; test: microscale thermophoresis; conditions: 100 mM KCl; 25 mM PBS, pH 7.05, 25 °C, 200 nM aptamer
[3] = tested on: 2N3M (DNA, aptamer) TGGTGGTGGTTGTTGTGGTGGTGGTGGT; test: microscale thermophoresis; conditions: 100 mM KCl; 25 mM potassium phosphate, pH 7.05, 25 °C, 200 nM aptamer
[4] = tested on: DNA TA (DNA, aptamer) GGTTGGTGTGGTTGG; test: microscale thermophoresis, Hill fit; conditions: 100 mM KCl; 25 mM PBS, pH 7.05, 25 °C, 200 nM aptamer
[5] = tested on: DNA TA (unlabeled, NMR) (DNA, aptamer) GGTTGGTGTGGTTGG; test: 1H 1D and 2D NOESY NMR; conditions: 100 mM KCl; 25 mM potassium phosphate, pH 7.4, 298 K, 10% D2O, 500 μM DNA, 2 equiv YER
[6] = tested on: RNA TA (RNA, aptamer) GGUUGGUGUGGUUGG; test: microscale thermophoresis, Hill fit; conditions: 100 mM KCl; 25 mM PBS, pH 7.05, 40 °C, 200 nM aptamer
ER dipeptide = biological target: T1, ER dipeptide (UniProt P00734 435-436); test: MST; 100 mM KCl, 25 C; MST: 200 nM FAM-oligo; 25 mM PBS pH 7.05, 100 mM KCl (DNA TA 25 C, RNA TA 40 C) or 25 mM K-phosphate pH 7.05, 100 mM KCl (2N3M, 25 C), Hill fit; NMR: 500 uM DNA TA, 25 mM K-phosphate pH 7.4, 100 mM KCl, 10% D2O, 298 K; conditions: label: 5'-FAM; intramolecular G-quadruplex
T1 chain: ER

[7] = biological target: T2, RYE tripeptide (thrombin loop fragment) (UniProt P00734 433-435); test: as above; conditions: label: 5'-FAM; intramolecular G-quadruplex
T2 chain: RYE

YE dipeptide = biological target: T3, YE dipeptide (UniProt P00734 434-435); test: as above; conditions: label: 5'-FAM; intramolecular G-quadruplex
T3 chain: YE

[8] = biological target: T4, ERN tripeptide (thrombin loop fragment) (UniProt P00734 435-437); test: as above; conditions: label: 5'-FAM; intramolecular G-quadruplex
T4 chain: ERN

[9] = biological target: T5, YER tripeptide (thrombin loop fragment) (UniProt P00734 434-436); test: as above; conditions: label: 5'-FAM; intramolecular G-quadruplex
T5 chain: YER

[10] = biological target: T6, REV tripeptide (RET analogue) (UniProt P19338 604-606, T606V); test: as above; conditions: label: 5'-FAM; intramolecular G-quadruplex
T6 chain: REV

[11] = biological target: T7, QET tripeptide (RET analogue) (UniProt P19338 604-606, R604Q); test: as above; conditions: label: 5'-FAM; intramolecular G-quadruplex
T7 chain: QET

[12] = biological target: T8, RET tripeptide (nucleolin loop fragment) (UniProt P19338 604-606); test: as above; conditions: label: 5'-FAM; intramolecular G-quadruplex
T8 chain: RET

[13] = biological target: T5, YER tripeptide (thrombin loop fragment); test: MST; 100 mM KCl, 40 C; MST: 200 nM FAM-oligo; 25 mM PBS pH 7.05, 100 mM KCl (DNA TA 25 C, RNA TA 40 C) or 25 mM K-phosphate pH 7.05, 100 mM KCl (2N3M, 25 C), Hill fit; NMR: 500 uM DNA TA, 25 mM K-phosphate pH 7.4, 100 mM KCl, 10% D2O, 298 K; conditions: label: 5'-FAM; intramolecular G-quadruplex (modelled)

## C[C@@H](O)[C@H](NC(=O)[C@H](CCC(=O)O)NC(=O)[C@@H](N)CCCNC(=N)N)C(=O)O (H-Arg-Glu-Thr-OH)
[1]
  Kd: 0.1 ± 0.02 µM

## N=C(N)NCCC[C@H](NC(=O)[C@@H](N)CCC(=O)O)C(=O)O (H-Glu-Arg-OH)
[2]
  binding: no

## N[C@@H](CCC(=O)O)C(=O)O
[3]
  binding: no
[2]
  binding: no

## CC(C)[C@H](NC(=O)[C@H](CCC(=O)O)NC(=O)[C@@H](N)CCCNC(=N)N)C(=O)O (H-Arg-Glu-Val-OH)
[3]
  binding: no

## N=C(N)NCCC[C@H](N)C(=O)N[C@@H](Cc1ccc(O)cc1)C(=O)N[C@@H](CCC(=O)O)C(=O)O (H-Arg-Tyr-Glu-OH)
[4]
  Kd: 52 ± 5 µM

## NCCCC[C@H](NC(=O)[C@H](CCC(=O)O)NC(=O)[C@@H](N)Cc1ccc(O)cc1)C(=O)O (H-Tyr-Glu-Lys-OH)
[2]
  binding: no

## N=C(N)NCCC[C@H](NC(=O)[C@H](CCC(=O)O)NC(=O)[C@@H](N)Cc1ccc(O)cc1)C(=O)O (H-Tyr-Glu-Arg-OH)
[5]
  binding: yes
[6]
  Kd: 37 ± 9 µM
[4]
  Kd: 5 ± 1 µM

## N[C@@H](Cc1ccc(O)cc1)C(=O)O
[2]
  binding: no

## N[C@@H](Cc1ccc(O)cc1)C(=O)N[C@@H](CCC(=O)O)C(=O)O (H-Tyr-Glu-OH)
[2]
  binding: no

## N=C(N)NCCC[C@H](NC(=O)[C@@H](N)CCC(=O)O)C(=O)N[C@@H](CC(N)=O)C(=O)O (H-Glu-Arg-Asn-OH)
[4]
  Kd: 12 ± 1 µM

## NC(N)=NCCC[C@H](NC(=O)[C@H](CCC(=O)O)NC(=O)[C@@H](N)Cc1ccccc1)C(=O)O (H-Phe-Glu-Arg-OH)
[2]
  binding: no

## N=C(N)NCCC[C@H](N)C(=O)O
[3]
  binding: no
[2]
  binding: no

## C[C@@H](O)[C@H](NC(=O)[C@H](CCC(=O)O)NC(=O)[C@@H](N)CCC(N)=O)C(=O)O (H-Gln-Glu-Thr-OH)
[3]
  binding: no

## C[C@@H](O)[C@H](N)C(=O)O
[3]
  binding: no

B1: DNA TA (FAM) (structured_DNA)
DNA: GGTTGGTGTGGTTGG
ER dipeptide
  binding result: no binding
[7]
  Kd: 52 ± 5 µM
YE dipeptide
  binding result: no binding
[8]
  Kd: 12 ± 1 µM
[9]
  Kd: 5 ± 1 µM

B2: 2N3M (AS1411 derivative, FAM) (structured_DNA)
DNA: TGGTGGTGGTTGTTGTGGTGGTGGTGGT
[10]
  binding result: no binding
[11]
  binding result: no binding
[12]
  Kd: 0.1 ± 0.02 µM

B3: RNA TA (FAM) (structured_RNA)
RNA: GGUUGGUGUGGUUGG
[13]
  Kd: 37 ± 9 µM
